Experimental data published in publication PMC10686834, “Targeting myeloid chemotaxis to reverse prostate cancer therapy resistance” (Nature, 2023).

Tested on: patients with ARSI-resistant mCRPC
Test: Phase 1 trial of AZD5069 plus enzalutamide: safety and tolerability (DLTs, treatment-emergent adverse events, NCI-CTCAE v.4.0)
Type: in vivo
Text: The primary trial objective was to evaluate the safety and tolerability of the combination. Key secondary objectives were to evaluate pharmacokinetic–pharmacodynamic parameters and antitumour activity.
Eligible patients were consenting patients aged ≥18 years, who had mCRPC with histologically confirmed prostate adenocarcinoma histology, documented cancer progression at the time of trial entry by Response Evaluation Criteria in Solid Tumors (v.1.1) and/or Prostate Cancer Working Group 2 criteria, and PSA of ≥10 ng ml^−1 at screening.
The dose-escalation phase used a rule-based 3 + 3 design, with an initial three patients enrolled per dose level. If none of the first three patients experienced a DLT, dose escalation proceeded to the next dose level. […] If fewer than two of six patients at any dose level experienced a DLT, dose escalation continued to the next level. If at least two out of up to six patients experienced a DLT, dose escalation stopped and this dose level was defined as the maximum administered dose. Once this maximum administered dose was defined, the maximum tolerated dose (MTD) was confirmed at the dose level below the maximum administered dose. At least six evaluable patients were required to establish the MTD at a specific dose level. […] Intra-patient dose escalation was not permitted. Start of dosing between the first and second patient enrolled to each dose level was staggered by 1 week. Once the MTD was determined in the phase 1 study, the recommended phase 2 dose was determined on the basis of available data, including but not limited to safety and response.
DLTs were defined as described in the study protocol. […] Prophylaxis with growth factor support or antipyretics were not permitted. Investigators determined whether an adverse event was related to the study drugs. If a patient experienced clinically significant and/or unacceptable toxicity, including a DLT, not attributable to the disease or disease-related processes, dosing was interrupted or the dose was reduced and supportive therapy was administered as required.

C[C@@H](Oc1cc(NS(=O)(=O)N2CCC2)nc(SCc2cccc(F)c2F)n1)[C@@H](O)CO [AZD5069]
TEAE Arthralgia, G≥3 (AZD5069 160 mg BD (n=6)): 0 (0) n (%)
TEAE Aspartate aminotransferase increased, All G (AZD5069 160 mg BD (n=6)): 0 (0) n (%)
TEAE Aspartate aminotransferase increased, G≥3 (AZD5069 160 mg BD (n=6)): 0 (0) n (%)
TEAE Constipation, All G (AZD5069 160 mg BD (n=6)): 0 (0) n (%)
TEAE Constipation, G≥3 (AZD5069 160 mg BD (n=6)): 0 (0) n (%)
TEAE Death, All G (AZD5069 160 mg BD (n=6)): 0 (0) n (%)
TEAE Death, G≥3 (AZD5069 160 mg BD (n=6)): 0 (0) n (%)
TEAE Decreased appetite, All G (AZD5069 160 mg BD (n=6)): 0 (0) n (%)
TEAE Decreased appetite, G≥3 (AZD5069 160 mg BD (n=6)): 0 (0) n (%)
TEAE Diarrhoea, All G (AZD5069 160 mg BD (n=6)): 0 (0) n (%)
TEAE Diarrhoea, G≥3 (AZD5069 160 mg BD (n=6)): 0 (0) n (%)
TEAE Dry skin, All G (AZD5069 160 mg BD (n=6)): 0 (0) n (%)
TEAE Dry skin, G≥3 (AZD5069 160 mg BD (n=6)): 0 (0) n (%)
TEAE Fatigue, All G (AZD5069 160 mg BD (n=6)): 2 (33) n (%)
TEAE Fatigue, G≥3 (AZD5069 160 mg BD (n=6)): 0 (0) n (%)
TEAE Headache, All G (AZD5069 160 mg BD (n=6)): 0 (0) n (%)
TEAE Headache, G≥3 (AZD5069 160 mg BD (n=6)): 0 (0) n (%)
TEAE Hypophosphataemia, All G (AZD5069 160 mg BD (n=6)): 0 (0) n (%)
TEAE Hypophosphataemia, G≥3 (AZD5069 160 mg BD (n=6)): 0 (0) n (%)
TEAE Nausea, All G (AZD5069 160 mg BD (n=6)): 2 (33) n (%)
TEAE Nausea, G≥3 (AZD5069 160 mg BD (n=6)): 0 (0) n (%)
TEAE Neutrophil decreased, All G (AZD5069 160 mg BD (n=6)): 5 (83) n (%)
TEAE Neutrophil decreased, G≥3 (AZD5069 160 mg BD (n=6)): 4 (67) n (%)
TEAE Oedema genital, All G (AZD5069 160 mg BD (n=6)): 1 (17) n (%)
TEAE Oedema genital, G≥3 (AZD5069 160 mg BD (n=6)): 0 (0) n (%)
TEAE Platelet decreased, All G (AZD5069 160 mg BD (n=6)): 1 (17) n (%)
TEAE Platelet decreased, G≥3 (AZD5069 160 mg BD (n=6)): 0 (0) n (%)
TEAE Pruritus, All G (AZD5069 160 mg BD (n=6)): 0 (0) n (%)
TEAE Pruritus, G≥3 (AZD5069 160 mg BD (n=6)): 0 (0) n (%)
TEAE Skin infection, All G (AZD5069 160 mg BD (n=6)): 0 (0) n (%)
TEAE Skin infection, G≥3 (AZD5069 160 mg BD (n=6)): 0 (0) n (%)
TEAE Vomiting, All G (AZD5069 160 mg BD (n=6)): 0 (0) n (%)
TEAE Vomiting, G≥3 (AZD5069 160 mg BD (n=6)): 0 (0) n (%)
TEAE White blood cell decreased, All G (AZD5069 160 mg BD (n=6)): 2 (33) n (%)
TEAE White blood cell decreased, G≥3 (AZD5069 160 mg BD (n=6)): 0 (0) n (%)
TEAE Anemia, All G (AZD5069 320 mg BD (n=7)): 0 (0) n (%)
TEAE Anemia, G≥3 (AZD5069 320 mg BD (n=7)): 0 (0) n (%)
TEAE Aphasia, All G (AZD5069 320 mg BD (n=7)): 1 (14) n (%)
TEAE Aphasia, G≥3 (AZD5069 320 mg BD (n=7)): 0 (0) n (%)
TEAE Arthralgia, All G (AZD5069 320 mg BD (n=7)): 1 (14) n (%)
TEAE Arthralgia, G≥3 (AZD5069 320 mg BD (n=7)): 0 (0) n (%)
TEAE Aspartate aminotransferase increased, All G (AZD5069 320 mg BD (n=7)): 1 (14) n (%)
TEAE Aspartate aminotransferase increased, G≥3 (AZD5069 320 mg BD (n=7)): 0 (0) n (%)
TEAE Constipation, All G (AZD5069 320 mg BD (n=7)): 1 (14) n (%)
TEAE Constipation, G≥3 (AZD5069 320 mg BD (n=7)): 0 (0) n (%)
TEAE Death, All G (AZD5069 320 mg BD (n=7)): 1 (14) n (%)
TEAE Death, G≥3 (AZD5069 320 mg BD (n=7)): 1 (14) n (%)
TEAE Decreased appetite, All G (AZD5069 320 mg BD (n=7)): 1 (14) n (%)
TEAE Decreased appetite, G≥3 (AZD5069 320 mg BD (n=7)): 0 (0) n (%)
TEAE Diarrhoea, All G (AZD5069 320 mg BD (n=7)): 1 (14) n (%)
TEAE Diarrhoea, G≥3 (AZD5069 320 mg BD (n=7)): 1 (14) n (%)
TEAE Dry skin, All G (AZD5069 320 mg BD (n=7)): 1 (14) n (%)
TEAE Dry skin, G≥3 (AZD5069 320 mg BD (n=7)): 0 (0) n (%)
TEAE Fatigue, All G (AZD5069 320 mg BD (n=7)): 3 (43) n (%)
TEAE Fatigue, G≥3 (AZD5069 320 mg BD (n=7)): 0 (0) n (%)
TEAE Headache, All G (AZD5069 320 mg BD (n=7)): 3 (43) n (%)
TEAE Headache, G≥3 (AZD5069 320 mg BD (n=7)): 0 (0) n (%)
TEAE Hypophosphataemia, All G (AZD5069 320 mg BD (n=7)): 0 (0) n (%)
TEAE Hypophosphataemia, G≥3 (AZD5069 320 mg BD (n=7)): 0 (0) n (%)
TEAE Nausea, All G (AZD5069 320 mg BD (n=7)): 1 (14) n (%)
TEAE Nausea, G≥3 (AZD5069 320 mg BD (n=7)): 0 (0) n (%)
TEAE Neutrophil decreased, All G (AZD5069 320 mg BD (n=7)): 6 (86) n (%)
TEAE Neutrophil decreased, G≥3 (AZD5069 320 mg BD (n=7)): 4 (57) n (%)
